This experiment concerns the target T1, mOat3 (Mus musculus, UniProt O88909).
T1 construct: expressed in transfected cells; host or cells: CHO (Chinese hamster ovary), stably transfected (CHO-mOat3)
T1 sequence (O88909 1-537): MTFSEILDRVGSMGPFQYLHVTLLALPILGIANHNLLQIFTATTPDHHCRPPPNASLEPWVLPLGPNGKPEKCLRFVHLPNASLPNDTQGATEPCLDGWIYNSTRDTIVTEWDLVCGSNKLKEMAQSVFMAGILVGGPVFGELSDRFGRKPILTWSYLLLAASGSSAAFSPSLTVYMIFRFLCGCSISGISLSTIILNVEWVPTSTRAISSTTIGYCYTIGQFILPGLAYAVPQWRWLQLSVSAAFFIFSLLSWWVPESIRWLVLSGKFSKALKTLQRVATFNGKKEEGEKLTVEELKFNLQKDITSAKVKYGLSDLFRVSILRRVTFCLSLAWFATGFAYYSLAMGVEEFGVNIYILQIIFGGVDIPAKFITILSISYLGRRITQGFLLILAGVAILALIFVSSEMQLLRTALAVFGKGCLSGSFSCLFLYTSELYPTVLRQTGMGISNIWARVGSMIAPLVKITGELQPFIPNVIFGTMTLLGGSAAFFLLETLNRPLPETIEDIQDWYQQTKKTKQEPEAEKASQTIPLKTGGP
Put plainly: Inhibition of mOat3-mediated [3H]ES uptake in CHO-mOat3 cells (cell accumulation assay). It counts as cell-based, murine. The note with it: for Ki / inhibition at 1000 µM: 1 μM [3H]ES; for Ki: 1 min, CHO-mOat3, mean ± S.E.M. (n = 3), from IC50 via Cheng-Prusoff, read-out: Estimated K i for mOat3-mediated transport; for inhibition at 1000 µM: 1 mM (1000 μM) inhibitor, 10 min, CHO-mOat3 cells, read-out: inhibition of mOat3-mediated ES uptake; for mode of inhibition of mOat3-mediated transport: mixed inhibition model, ES substrate. The procedure: Derivation of the stably transfected Chinese hamster ovary (CHO) cell lines expressing mOat1 (CHO-mOat1), mOat3 (CHO-mOat3), and the empty vector (FRT) transfected control cell line (CHO-FRT) was described previously.
Cell transport assay procedures were adapted from those previously published. In brief, 2 × 10^5 cells/well were seeded in 24-well tissue culture plates and grown in the absence of antibiotics for 48 hr. On the day of the experiment, cells were equilibrated with transport buffer for 10 min (500 μL of Hanks' balanced salt solution containing 10 mM HEPES, pH 7.4). […] After incubation, cells were immediately rinsed three times with ice-cold transport buffer, lysed, and analyzed via liquid scintillation counting. Uptake values were normalized to corresponding total protein content in cell lysates as determined by the Bradford method. Substrate accumulation is reported as picomoles of substrate per milligram protein. […] Kinetic calculations were performed using GraphPad Prism Software version 5.0 (GraphPad Software Inc., San Diego, CA, USA). Michaelis constant (K m) values were calculated by nonlinear regression using the Michaelis-Menten model. Mode of inhibition was identified by using mixed model inhibition analysis as follows: (1) Vmax Apparent =Vmax/(1+[I]/(α×Ki)),Km Apparent=Km1+[I]/Ki/(1+[I]/(α×Ki)),Y=Vmax Apparent×x/Km Apparent+x, where V max, K i, and I represent the maximum transport velocity without inhibitor, the inhibition constant generated from the data set under analysis, and the concentration of inhibitor, respectively. In this study, three curves were constructed (no inhibitor, plus two selected inhibitor concentrations) with uptake of substrate plotted as a function of its concentration for each condition. […] The parameter, α, can then be used to determine the mode of inhibition. When α is very large (α > 1), it indicates competitive inhibition. Otherwise, it indicates noncompetitive inhibition (α = 1) or uncompetitive inhibition (0 < α < 1). To estimate K i values, IC50 values were calculated using nonlinear regression and inserted into the Cheng-Prusoff equation: K i = IC50/(1 + [Substrate]/K m). Results were confirmed by repeating all experiments at least three times with triplicate wells for each data point in every experiment.
Figure 2 Inhibition profile of mOat1 and mOat3. […] (5 μM) by LSA, PCA, RMA, SAA, SAB, TSL, and probenecid (1000 μM) was measured in the CHO-mOat1 cells (10 min). […] (b) Inhibition of mOat3-mediated uptake of [^3H]ES (1 μM) by LSA, PCA, RMA, SAA, SAB, TSL, and probenecid (1000 μM) was measured in the CHO-mOat3 cells (10 min). […] Values are mean ± S.D. of triplicate values. ***denotes P < 0.001 as determined by one-way ANOVA followed by Dunnett's t-test.
Figure 5 K i determination for LSA, RMA, and SAA in the CHO-mOat3 cell line. One minute uptake of [^3H]ES (1 μM) in CHO-mOat3 cells was measured in the presence of increasing concentrations (10^−7 to 4 × 10^−4 M) of LSA, RMA, and SAA. Data were corrected for nonspecific background measured in the CHO-FRT cells prior to kinetic analysis. K i values were determined with non-linear regression and the “one-site competition” model using GraphPad Prism software. Graphs shown are from representative experiments with values plotted as mean ± S.D. (n = 3).

As to `O=C(/C=C/c1ccc(O)c2c1[C@H](C(=O)O)[C@@H](c1ccc(O)c(O)c1)O2)O[C@H](Cc1ccc(O)c(O)c1)C(=O)O` [LSA, lithospermic acid], the Ki is 31.1 ± 7 µM, the inhibition at 1000 µM is above 91% and the “mode of inhibition of mOat3-mediated transport” value is listed as “competitive”.

For `O=C(/C=C/c1ccc(O)c(O)c1)O[C@H](Cc1ccc(O)c(O)c1)C(=O)O` [RMA, rosmarinic acid], the Ki is 4.3 ± 0.2 µM, the inhibition at 1000 µM was above 91% and the “mode of inhibition of mOat3-mediated transport” value is on record as “competitive”.

On to `O=C(/C=C/c1ccc(O)c(O)c1/C=C/c1ccc(O)c(O)c1)O[C@H](Cc1ccc(O)c(O)c1)C(=O)O` [SAA, salvianolic acid A], for which the Ki is 21.3 ± 7.7 µM, the inhibition at 1000 µM was above 91% and the “mode of inhibition of mOat3-mediated transport” value is “competitive”. In addition, for the setting “1 μM ES for 1 min, mean, α > 1 indicates competitive inhibition”, the “Estimated α value from mixed inhibition model analysis, mOat3” value was 3.4 × 10^14.

For the compound `O=C(O)C(O)Cc1ccc(O)c(O)c1` (centres unmarked) [TSL, tanshinol], the inhibition at 1000 µM is around 55%.

As usually defined, the inhibition is the relative decrease from the control value, in per cent.

Values taken from PMC3403540, “Active Hydrophilic Components of the Medicinal Herb Salvia miltiorrhiza (Danshen) Potently Inhibit Organic Anion Transporters 1 (Slc22a6) and 3 (Slc22a8)” (Evidence-based Complementary and Alternative Medicine : eCAM, 2012).
